“Also recorded” adds a separate entry of the source.
How the values were obtained:
[1] = test system: Escherichia coli (NCTC 10418); test: Growth of E. coli in Mueller-Hinton broth in the presence of nitrocoumarins (optical density 690 nm); type: cell-based
Description: (§1) A sample of the 7-nitrocoumarin derivative is dissolved in 4 ml of hot, distilled water. The mass dissolved to make the stock solution is such that the final concentration of the compound in the assay is 0.105 mmol/l. This solution is added to 96 ml of Mueller-Hinton broth and the mixture is sterile-filtered.
(§2) The E. coli was grown for 24 hours at 35° C. on Columbia agar supplemented with sheep blood. The bacteria were then resuspended in sterile, distilled water and their density was adjusted to 0.5 on the MacFarland scale (i.e. about 10^8 cells/ml). This suspension was then diluted 100-fold in sterile Mueller-Hinton broth (i.e. to a final density of about 10^6 cells/ml).
(§3) Fifty microliters of each nitrocoumarin solution plus 50 μl of bacterial suspension were then added to the wells of a microtiter plate. The plates were incubated at 35° C. and the optical density and fluorescence of each well was read every 30 min for a total of 4 hours. Optical density (690 nm) readings were made using an Anthos 2001 spectrophotometer (Labtech International Limited), and fluorescence (excitation at 365 nm and emission at 440 nm) readings were made on a Biolite F1 2001 fluorometer (Labtech International Limited).
(§4) The effect of the concentration of 7-nitrocoumarin-3-carboxylic acid on the sensitivity of the assay to detect E. coli (NCTC strain 10418) was investigated at concentrations of the indicator ranging from 0 to 0.262 mmol/l. All other conditions were identical to those described in section A above.

[2] = test system: E. coli (NCTC strain 10418); test: Fluorescent signal generated by E. coli reducing nitrocoumarins (nitroaryl reductase activity); type: cell-based, Escherichia coli
Description: as §1, §2, §3, §4

O=C(O)c1cc2ccc([N+](=O)[O-])cc2oc1=O [7-nitrocoumarin-3-carboxylic acid]
Optical density (690 nm) ([1]; 0.005 mmol/l, 0 min): 0.000
Optical density (690 nm) ([1]; 0.005 mmol/l, 30 min): 0.000
Optical density (690 nm) ([1]; 0.005 mmol/l, 60 min): 0.003
Optical density (690 nm) ([1]; 0.005 mmol/l, 90 min): 0.011
Optical density (690 nm) ([1]; 0.005 mmol/l, 120 min): 0.034
Optical density (690 nm) ([1]; 0.005 mmol/l, 150 min): 0.090
Optical density (690 nm) ([1]; 0.005 mmol/l, 180 min): 0.155
Optical density (690 nm) ([1]; 0.005 mmol/l, 210 min): 0.246
Optical density (690 nm) ([1]; 0.005 mmol/l, 240 min): 0.411
Optical density (690 nm) ([1]; 0.013 mmol/l, 0 min): 0.000
Optical density (690 nm) ([1]; 0.013 mmol/l, 30 min): 0.000
Optical density (690 nm) ([1]; 0.013 mmol/l, 60 min): 0.003
Optical density (690 nm) ([1]; 0.013 mmol/l, 90 min): 0.011
Optical density (690 nm) ([1]; 0.013 mmol/l, 120 min): 0.032
Optical density (690 nm) ([1]; 0.013 mmol/l, 150 min): 0.088
Optical density (690 nm) ([1]; 0.013 mmol/l, 180 min): 0.149
Optical density (690 nm) ([1]; 0.013 mmol/l, 210 min): 0.233
Optical density (690 nm) ([1]; 0.013 mmol/l, 240 min): 0.371
Optical density (690 nm) ([1]; 0.026 mmol/l, 0 min): 0.000
Optical density (690 nm) ([1]; 0.026 mmol/l, 30 min): 0.001
Optical density (690 nm) ([1]; 0.026 mmol/l, 60 min): 0.004
Optical density (690 nm) ([1]; 0.026 mmol/l, 90 min): 0.011
Optical density (690 nm) ([1]; 0.026 mmol/l, 120 min): 0.032
Optical density (690 nm) ([1]; 0.026 mmol/l, 150 min): 0.079
Optical density (690 nm) ([1]; 0.026 mmol/l, 180 min): 0.201
Optical density (690 nm) ([1]; 0.026 mmol/l, 210 min): 0.290
Optical density (690 nm) ([1]; 0.026 mmol/l, 240 min): 0.436
Optical density (690 nm) ([1]; 0.052 mmol/l, 0 min): 0.000
Optical density (690 nm) ([1]; 0.052 mmol/l, 30 min): 0.001
Optical density (690 nm) ([1]; 0.052 mmol/l, 60 min): 0.003
Optical density (690 nm) ([1]; 0.052 mmol/l, 90 min): 0.011
Optical density (690 nm) ([1]; 0.052 mmol/l, 120 min): 0.031
Optical density (690 nm) ([1]; 0.052 mmol/l, 150 min): 0.082
Optical density (690 nm) ([1]; 0.052 mmol/l, 180 min): 0.153
Optical density (690 nm) ([1]; 0.052 mmol/l, 210 min): 0.225
Optical density (690 nm) ([1]; 0.052 mmol/l, 240 min): 0.408
Inhibitory effect on the growth of E. coli (in words) ([1]; 0.105 mmol/l): no retarded growth; also recorded: does not inhibit E. coli growth
Optical density (690 nm) ([1]; 0.105 mmol/l, 0 min): 0.000
Optical density (690 nm) ([1]; 0.105 mmol/l, 30 min): 0.000
Optical density (690 nm) ([1]; 0.105 mmol/l, 60 min): 0.002
Optical density (690 nm) ([1]; 0.105 mmol/l, 90 min): 0.008
Optical density (690 nm) ([1]; 0.105 mmol/l, 120 min): 0.026
Optical density (690 nm) ([1]; 0.105 mmol/l, 150 min): 0.068
Optical density (690 nm) ([1]; 0.105 mmol/l, 180 min): 0.164
Optical density (690 nm) ([1]; 0.105 mmol/l, 210 min): 0.227
Optical density (690 nm) ([1]; 0.105 mmol/l, 240 min): 0.416
Optical density (690 nm) ([1]; 0.157 mmol/l, 0 min): 0.000
Optical density (690 nm) ([1]; 0.157 mmol/l, 30 min): −0.001
Optical density (690 nm) ([1]; 0.157 mmol/l, 60 min): 0.002
Optical density (690 nm) ([1]; 0.157 mmol/l, 90 min): 0.009
Optical density (690 nm) ([1]; 0.157 mmol/l, 120 min): 0.027
Optical density (690 nm) ([1]; 0.157 mmol/l, 150 min): 0.073
Optical density (690 nm) ([1]; 0.157 mmol/l, 180 min): 0.151
Optical density (690 nm) ([1]; 0.157 mmol/l, 210 min): 0205
Optical density (690 nm) ([1]; 0.157 mmol/l, 240 min): 0.372
Optical density (690 nm) ([1]; 0.210 mmol/l, 0 min): 0.000
Optical density (690 nm) ([1]; 0.210 mmol/l, 30 min): 0.000
Optical density (690 nm) ([1]; 0.210 mmol/l, 60 min): 0.003
Optical density (690 nm) ([1]; 0.210 mmol/l, 90 min): 0.010
Optical density (690 nm) ([1]; 0.210 mmol/l, 120 min): 0.027
Optical density (690 nm) ([1]; 0.210 mmol/l, 150 min): 0.072
Optical density (690 nm) ([1]; 0.210 mmol/l, 180 min): 0.138
Optical density (690 nm) ([1]; 0.210 mmol/l, 210 min): 0.187
Optical density (690 nm) ([1]; 0.210 mmol/l, 240 min): 0.346
Optical density (690 nm) ([1]; 0.262 mmol/l, 0 min): 0.000
Optical density (690 nm) ([1]; 0.262 mmol/l, 30 min): 0.000
Optical density (690 nm) ([1]; 0.262 mmol/l, 60 min): 0.002
Optical density (690 nm) ([1]; 0.262 mmol/l, 90 min): 0.009
Optical density (690 nm) ([1]; 0.262 mmol/l, 120 min): 0.027
Optical density (690 nm) ([1]; 0.262 mmol/l, 150 min): 0.069
Optical density (690 nm) ([1]; 0.262 mmol/l, 180 min): 0.144
Optical density (690 nm) ([1]; 0.262 mmol/l, 240 min): 0.346
Effect of the concentration on E. coli growth (in words) ([1]; concentrations from 0 to 0.262 mmol/l): no significant effect
Fluorescent signal ([2]; 0.005 mmol/l, 0 min): 0
Fluorescent signal ([2]; 0.005 mmol/l, 30 min): −134
Fluorescent signal ([2]; 0.005 mmol/l, 60 min): −164
Fluorescent signal ([2]; 0.005 mmol/l, 90 min): −122
Fluorescent signal ([2]; 0.005 mmol/l, 120 min): −94
Fluorescent signal ([2]; 0.005 mmol/l, 150 min): −9
Fluorescent signal ([2]; 0.005 mmol/l, 180 min): 406
Fluorescent signal ([2]; 0.005 mmol/l, 210 min): 1307
Fluorescent signal ([2]; 0.005 mmol/l, 240 min): 2466
Fluorescent signal ([2]; 0.013 mmol/l, 0 min): 0
Fluorescent signal ([2]; 0.013 mmol/l, 30 min): −113
Fluorescent signal ([2]; 0.013 mmol/l, 60 min): −141
Fluorescent signal ([2]; 0.013 mmol/l, 90 min): −76
Fluorescent signal ([2]; 0.013 mmol/l, 120 min): −22
Fluorescent signal ([2]; 0.013 mmol/l, 150 min): 174
Fluorescent signal ([2]; 0.013 mmol/l, 180 min): 1068
Fluorescent signal ([2]; 0.013 mmol/l, 210 min): 3073
Fluorescent signal ([2]; 0.013 mmol/l, 240 min): 5902
Fluorescent signal ([2]; 0.026 mmol/l, 0 min): 0
Fluorescent signal ([2]; 0.026 mmol/l, 30 min): −91
Fluorescent signal ([2]; 0.026 mmol/l, 60 min): −110
Fluorescent signal ([2]; 0.026 mmol/l, 90 min): −39
Fluorescent signal ([2]; 0.026 mmol/l, 120 min): 71
Fluorescent signal ([2]; 0.026 mmol/l, 150 min): 467
Fluorescent signal ([2]; 0.026 mmol/l, 180 min): 2311
Fluorescent signal ([2]; 0.026 mmol/l, 210 min): 6028
Fluorescent signal ([2]; 0.026 mmol/l, 240 min): 11387
Fluorescent signal ([2]; 0.052 mmol/l, 0 min): 0
Fluorescent signal ([2]; 0.052 mmol/l, 30 min): −83
Fluorescent signal ([2]; 0.052 mmol/l, 60 min): −76
Fluorescent signal ([2]; 0.052 mmol/l, 90 min): 33
Fluorescent signal ([2]; 0.052 mmol/l, 120 min): 241
Fluorescent signal ([2]; 0.052 mmol/l, 150 min): 861
Fluorescent signal ([2]; 0.052 mmol/l, 180 min): 4004
Fluorescent signal ([2]; 0.052 mmol/l, 210 min): 10584
Fluorescent signal ([2]; 0.052 mmol/l, 240 min): 19530
Fluorescent signal relative to that given by any of the other substrates ([2]; 0.105 mmol/l): more than twice as high
Fluorescent signal ([2]; 0.105 mmol/l, 0 min): 0
Fluorescent signal ([2]; 0.105 mmol/l, 30 min): −67
Fluorescent signal ([2]; 0.105 mmol/l, 60 min): 4
Fluorescent signal ([2]; 0.105 mmol/l, 90 min): 181
Fluorescent signal ([2]; 0.105 mmol/l, 120 min): 586
Fluorescent signal ([2]; 0.105 mmol/l, 150 min): 1694
Fluorescent signal ([2]; 0.105 mmol/l, 180 min): 6724
Fluorescent signal ([2]; 0.105 mmol/l, 210 min): 17495
Fluorescent signal ([2]; 0.105 mmol/l, 240 min): 31314
Extent of reduction of the substrate (in words) ([2]; 0.105 mmol/l, end of the four-hour assay): reduced to a far greater extent than any of the other nitrocoumarins
Fluorescent signal ([2]; 0.157 mmol/l, 0 min): 0
Fluorescent signal ([2]; 0.157 mmol/l, 30 min): −74
Fluorescent signal ([2]; 0.157 mmol/l, 60 min): 48
Fluorescent signal ([2]; 0.157 mmol/l, 90 min): 280
Fluorescent signal ([2]; 0.157 mmol/l, 120 min): 811
Fluorescent signal ([2]; 0.157 mmol/l, 150 min): 2231
Fluorescent signal ([2]; 0.157 mmol/l, 180 min): 8264
Fluorescent signal ([2]; 0.157 mmol/l, 210 min): 21022
Fluorescent signal ([2]; 0.157 mmol/l, 240 min): 36517
Fluorescent signal ([2]; 0.210 mmol/l, 0 min): 0
Fluorescent signal ([2]; 0.210 mmol/l, 30 min): −6
Fluorescent signal ([2]; 0.210 mmol/l, 60 min): 88
Fluorescent signal ([2]; 0.210 mmol/l, 90 min): 354
Fluorescent signal ([2]; 0.210 mmol/l, 120 min): 979
Fluorescent signal ([2]; 0.210 mmol/l, 150 min): 2588
Fluorescent signal ([2]; 0.210 mmol/l, 180 min): 9000
Fluorescent signal ([2]; 0.210 mmol/l, 210 min): 21589
Fluorescent signal ([2]; 0.210 mmol/l, 240 min): 37823
Fluorescent signal ([2]; 0.262 mmol/l, 0 min): 0
Fluorescent signal ([2]; 0.262 mmol/l, 30 min): 3
Fluorescent signal ([2]; 0.262 mmol/l, 60 min): 131
Fluorescent signal ([2]; 0.262 mmol/l, 90 min): 446
Fluorescent signal ([2]; 0.262 mmol/l, 120 min): 1190
Fluorescent signal ([2]; 0.262 mmol/l, 150 min): 3037
Fluorescent signal ([2]; 0.262 mmol/l, 180 min): 9721
Fluorescent signal ([2]; 0.262 mmol/l, 210 min): 22066
Fluorescent signal ([2]; 0.262 mmol/l, 240 min): 37949

From patent US20020031795A1, “Nitrocoumarins for detecting all micro-organisms” (priority 1998, published 2002)
